A value given as a limit tells only on which side of the number the result lay.

The target of this test is T1, SARM1 (50-724) (Homo sapiens, UniProt Q6SZW1).
T1 construct: Purified SARM1 (50-724) with a final concentration of 2 nM was pre-incubated with a test compound
T1 sequence (Q6SZW1 50-724): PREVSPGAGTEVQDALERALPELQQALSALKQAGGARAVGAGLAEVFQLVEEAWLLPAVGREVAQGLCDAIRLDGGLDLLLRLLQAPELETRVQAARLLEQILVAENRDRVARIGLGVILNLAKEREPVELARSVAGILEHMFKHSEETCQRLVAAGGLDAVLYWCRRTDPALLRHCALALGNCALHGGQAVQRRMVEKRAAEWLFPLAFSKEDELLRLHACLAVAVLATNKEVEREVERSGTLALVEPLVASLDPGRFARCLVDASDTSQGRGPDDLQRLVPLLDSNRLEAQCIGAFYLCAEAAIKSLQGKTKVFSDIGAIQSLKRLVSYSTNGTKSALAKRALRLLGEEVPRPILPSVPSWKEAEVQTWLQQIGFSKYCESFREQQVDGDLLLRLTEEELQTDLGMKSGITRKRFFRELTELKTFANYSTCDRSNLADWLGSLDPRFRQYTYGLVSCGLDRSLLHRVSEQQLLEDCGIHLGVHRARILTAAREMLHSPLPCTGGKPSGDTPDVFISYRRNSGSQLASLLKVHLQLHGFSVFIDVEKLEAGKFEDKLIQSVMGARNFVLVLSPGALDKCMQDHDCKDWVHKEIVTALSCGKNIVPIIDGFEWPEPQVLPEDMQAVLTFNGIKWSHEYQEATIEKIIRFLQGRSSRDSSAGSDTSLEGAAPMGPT
In words: SARM1 (50-724) enzymatic assay (LC-MS/MS). The following applies: Purified SARM1 (50-724) 2 nM, NMN as activator, NAD+ as substrate, 1 h at room temperature, read-out: IC50 (SARM1 inhibitory activity). Format: biochemical. The gist of the method:
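Human SARM1 (50-724), 2 nM, pre-incubated 15 min at room temperature with compound in Dulbecco's PBS. Reaction started with 200 µM NMN (activator) plus […] NAD^+ substrate, run 1 h at room temperature, quenched with 70% acetonitrile. Turnover quantified by LC-MS/MS; IC50 reported.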
As to `Cc1ccnc(-n2cnnc2-c2nc3cc(C(F)(F)F)ccc3[nH]2)c1Cl` [Example 66], the IC50 (in general, the midpoint of a concentration-inhibition curve) is at most 0.1 µM.

For `Fc1cc(C(F)(F)F)cc2nc(-c3nncn3-c3cnccc3C(F)(F)F)[nH]c12` [Compound 233, 7-Fluoro-5-(trifluoromethyl)-2-(4-(4-(trifluoromethyl)pyridin-3-yl)-4H-1,2,4-triazol-3-yl)-1H-benzo[d]imidazole], the IC50 was at most 0.1 µM.

As to `CC1CC1c1cc(F)c2[nH]c(-c3nncn3-c3cnccc3C(F)(F)F)nc2c1` (stereo not drawn) [Compound 330, 7-fluoro-5-(2-methylcyclopropyl)-2-(4-(4-(trifluoromethyl)pyridin-3-yl)-4H-1,2,4-triazol-3-yl)-1H-benzo[d]imidazole], the IC50 was at most 0.1 µM.

For the compound `Cc1ccc2[nH]c(-c3cncn3C3CCCC3)nc2c1` [Compound 3, 2-(1-cyclopentyl-1H-imidazol-5-yl)-6-methyl-1H-benzo[d]Imi-dazole], the IC50 is over 1 µM.

As to `NC(=O)Cn1cc(-c2cccc(F)c2Cl)c(-c2nc3cc(C(F)(F)F)ccc3[nH]2)cc1=O` [Compound 199, 2-(5-(2-chloro-3-fluorophenyl)-2-oxo-4-(5-(trifluoromethyl)-1H-benzo[d]imidazol-2-yl)pyridin-1(2H)-yl)acetamide], the IC50 is at most 0.1 µM.

On to `Fc1cc2[nH]c(-c3nncn3-c3cnccc3C(F)(F)F)nc2c(F)c1C1CC1` [Compound 332, 5-cyclopropyl-4,6-difluoro-2-(4-(4-(trifluoromethyl)pyridin-3-yl)-4H-1,2,4-triazol-3-yl)-1H-benzo[d]imidazole], for which the IC50 is at most 0.1 µM.

Consider `CC(C)(C)c1ccc2[nH]c(-c3nncn3-c3nc(O)ccc3Cl)nc2c1` [Compound 148, 6-(3-(5-(tert-butyl)-1H-benzo[d]imidazol-2-yl)-4H-1,2,4-triazol-4-yl)-5-chloropyridin-2(1H)-one], for which the IC50 is at most 0.1 µM.

In the case of `Fc1ccc(-n2cnnc2-c2nc3cc(C(F)(F)F)ccc3[nH]2)c(Cl)c1F` [Example 120], the IC50 is at most 0.1 µM.

For `Oc1cc(-c2ccccc2Cl)c(-c2nc3cc(C(F)(F)F)ccc3[nH]2)nn1` [Compound 406, 5-(2-chlorophenyl)-6-(5-(trifluoromethyl)-1H-benzo[d]imidazol-2-yl)pyridazin-3-ol], the IC50 is 0.1 to 0.5 µM.

Take `FC(F)C1(c2ccc3[nH]c(-c4nncn4-c4ccncc4OC(F)(F)F)nc3c2)CC1` [Compound 237]: the IC50 is at most 0.1 µM.

Take `CNC(=O)CCc1nnc(-c2nc3cc(C(F)(F)F)ccc3[nH]2)n1-c1cccc(Cl)c1Cl` [Compound 156, 3-(4-(2,3-dichlorophenyl)-5-(5-(trifluoromethyl)-1H-benzo[d]imidazol-2-yl)-4H-1,2,4-triazol-3-yl)-N-methylpropanamide]: the IC50 is at most 0.1 µM.

For `COc1cc(-c2nc3cc(C(F)(F)F)ccc3[nH]2)c(-c2cccc(Cl)c2Cl)cn1` [Compound 402, 2-(5-(2,3-dichlorophenyl)-2-methoxypyridin-4-yl)-5-(trifluoromethyl)-1H-benzo[d]imidazole], the IC50 fell in the range of 0.1 to 0.5 µM.

For `FC(F)(F)c1ccc2[nH]c(-c3nnc(OC4CSC4)n3-c3cccc(Cl)c3Cl)nc2c1` [Compound 131], the IC50 is over 1 µM.

As for `C[S+]([O-])Cc1nnc(-c2nc3cc(C(F)(F)F)ccc3[nH]2)n1-c1cccc(Cl)c1Cl` (single isomer, unassigned) [Compound 146, 2-(4-(2,3-dichlorophenyl)-5-((methylsulfinyl)methyl)-4H-1,2,4-triazol-3-yl)-5-(trifluoromethyl)-1H-benzo[d]imidazole], the IC50 is at most 0.1 µM.

Consider `CN(CCCO)c1cc(F)c2[nH]c(-c3nncn3-c3cnccc3C(F)(F)F)nc2c1` [Compound 451, 3-((4-fluoro-2-(4-(4-(trifluoromethyl)pyridin-3-yl)-4H-1,2,4-triazol-3-yl)-1H-benzo[d]imidazol-6-yl)(methyl)amino)propan-1-ol], for which the IC50 was at most 0.1 µM.
